In ChEMBL document CHEMBL1201862, “PubChem BioAssay data set” (2004):
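In this assay, cells in 96-well plates receive the compound at five concentrations for 48 hours. Endpoints are linearly interpolated between the surrounding concentrations. At the GI50, growth is halved.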 Activity calls are given as the source filed them. Rule as the data show it: active = GI50 up to about 1.1 µM and inactive = higher.

Legend:
Test in all cases: NCI anticancer screen, dose series, 48 h
HCT-15 = test system: HCT-15
MCF7 = test system: MCF7
KM12 = test system: KM12
HT-29 = test system: HT-29
HOP-62 = test system: HOP-62
SF-268 = test system: SF-268
SF-539 = test system: SF-539
OVCAR-3 = test system: OVCAR-3
MDA-MB-231 = test system: MDA-MB-231
UO-31 = test system: UO-31
HCC 2998 = test system: HCC 2998
M14 = test system: M14
SK-MEL-28 = test system: SK-MEL-28
RPMI-8226 = test system: RPMI-8226
NCI-H460 = test system: NCI-H460
SF-295 = test system: SF-295
UACC-257 = test system: UACC-257
Hs-578T = test system: Hs-578T
MDA-MB-435 = test system: MDA-MB-435

Compound	GI50 (HCT-15)	GI50 (MCF7)	GI50 (KM12)	GI50 (HT-29)	GI50 (HOP-62)	GI50 (SF-268)	GI50 (SF-539)	GI50 (OVCAR-3)	GI50 (MDA-MB-231)	GI50 (UO-31)	GI50 (HCC 2998)	GI50 (M14)	GI50 (SK-MEL-28)	GI50 (RPMI-8226)	GI50 (NCI-H460)	GI50 (SF-295)	GI50 (UACC-257)	GI50 (Hs-578T)	GI50 (MDA-MB-435)
Cc1ccccc1Nc1nc2ccccc2nc1NS(=O)(=O)c1ccccc1	> 100 µM	> 100 µM (inactive)	> 100 µM (inactive)	> 100 µM (inactive)	68.1 µM (inactive)	> 100 µM (inactive)	59.7 µM (inactive)	> 100 µM (inactive)	> 100 µM (inactive)	> 100 µM (inactive)	> 100 µM (inactive)	> 100 µM (inactive)	> 100 µM (inactive)	> 100 µM (inactive)	> 100 µM (inactive)	67.1 µM (inactive)	> 100 µM (inactive)	> 100 µM (inactive)	> 100 µM (inactive)
N#CC1=CNc2sccc2S1(=O)=O	61.9 µM	> 100 µM (inactive)	1.68 µM (inactive)	> 100 µM (inactive)	> 100 µM (inactive)	81.7 µM (inactive)	> 100 µM (inactive)	> 100 µM (inactive)	> 100 µM (inactive)	92.9 µM (inactive)	39.8 µM (inactive)	> 100 µM (inactive)	> 100 µM (inactive)	> 100 µM (inactive)	40.7 µM (inactive)	> 100 µM (inactive)	> 100 µM (inactive)	> 100 µM (inactive)	89.7 µM (inactive)
CC1(C)C(c2ccccc2)=[N+]([O-])C(C)(C)N1O	> 10 µM	> 10 µM (inactive)	> 10 µM (inactive)	> 10 µM (inactive)	> 10 µM (inactive)	> 10 µM (inactive)	> 10 µM (inactive)	> 10 µM (inactive)	> 10 µM (inactive)	–	> 10 µM (inactive)	> 10 µM (inactive)	> 10 µM (inactive)	> 10 µM (inactive)	> 10 µM (inactive)	> 10 µM (inactive)	> 10 µM (inactive)	> 10 µM (inactive)	> 10 µM (inactive)
COC(=O)c1cccc(OC)c1C#Cc1c(OC)cccc1OC	> 100 µM	> 100 µM (inactive)	69.7 µM (inactive)	> 100 µM (inactive)	> 100 µM (inactive)	> 100 µM (inactive)	> 100 µM (inactive)	> 100 µM (inactive)	> 100 µM (inactive)	> 100 µM (inactive)	> 100 µM (inactive)	> 100 µM (inactive)	> 100 µM (inactive)	> 100 µM (inactive)	> 100 µM (inactive)	> 100 µM (inactive)	> 100 µM (inactive)	> 100 µM (inactive)	47.8 µM (inactive)
COc1ccc2cc(NC(=O)N/N=C\c3ccc(Cl)cc3)ccc2c1	> 100 µM	> 100 µM (inactive)	> 100 µM (inactive)	> 100 µM (inactive)	27.5 µM (inactive)	44.1 µM (inactive)	43.1 µM (inactive)	> 100 µM (inactive)	27.5 µM (inactive)	> 100 µM (inactive)	> 100 µM (inactive)	> 100 µM (inactive)	> 100 µM (inactive)	> 100 µM (inactive)	50 µM (inactive)	59.6 µM (inactive)	> 100 µM (inactive)	24 µM (inactive)	69.8 µM (inactive)
Cc1c2c(OCCCCN3CCN(c4ncccn4)CC3)nn(C)c(=O)c2c(C)n1-c1ccccc1	17.8 µM	16.4 µM (inactive)	18.4 µM (inactive)	24.8 µM (inactive)	25.7 µM (inactive)	18.7 µM (inactive)	17.6 µM (inactive)	19.5 µM (inactive)	16 µM (inactive)	15.8 µM (inactive)	20 µM (inactive)	20.7 µM (inactive)	18.4 µM (inactive)	20.2 µM (inactive)	17.4 µM (inactive)	16.4 µM (inactive)	18.7 µM (inactive)	26.2 µM (inactive)	18.7 µM (inactive)
O=C1/C(=C/c2ccccc2O)N=C(c2ccccc2)N1C1Nc2cc3c(cc2S1)NC(N1C(=O)/C(=C/c2ccccc2O)N=C1c1ccccc1)S3 (configuration not stated)	13.5 µM	2.13 µM (inactive)	41.3 µM (inactive)	42.3 µM (inactive)	31.2 µM (inactive)	16.6 µM (inactive)	36.1 µM (inactive)	55.1 µM (inactive)	32.7 µM (inactive)	23 µM (inactive)	33.6 µM (inactive)	38.3 µM (inactive)	65.3 µM (inactive)	26.1 µM (inactive)	12.5 µM (inactive)	42.1 µM (inactive)	66.8 µM (inactive)	30.5 µM (inactive)	14.8 µM (inactive)
